What was measured:
Carbonic anhydrase 9 = Carbonic anhydrase 9 (Homo sapiens, UniProt Q16790); test: Inhibition of human recombinant carbonic anhydrase 9 preincubated for 15 mins by stopped flow CO2 hydration assay
Carbonic anhydrase 1 = Carbonic anhydrase 1 (Homo sapiens, UniProt P00915); test: Inhibition of human recombinant carbonic anhydrase 1 preincubated for 15 mins by stopped flow CO2 hydration assay
Sequence of Carbonic anhydrase 1 (P00915 whole entry): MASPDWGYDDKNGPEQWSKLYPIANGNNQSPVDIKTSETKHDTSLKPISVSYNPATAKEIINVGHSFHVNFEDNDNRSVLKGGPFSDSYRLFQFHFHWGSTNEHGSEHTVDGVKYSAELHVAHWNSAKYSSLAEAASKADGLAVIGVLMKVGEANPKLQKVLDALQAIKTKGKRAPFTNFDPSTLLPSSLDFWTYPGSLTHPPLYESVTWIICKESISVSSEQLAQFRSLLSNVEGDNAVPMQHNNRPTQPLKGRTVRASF

Compound | Ki (Carbonic anhydrase 9) | Ki (Carbonic anhydrase 1)
COc1cc2c(=O)n(-c3ccc(S(N)(=O)=O)cc3)c(S)nc2c(OC)c1OC | 50.4 nM | –
COc1ccc2nc(S)n(-c3ccc(S(N)(=O)=O)cc3)c(=O)c2c1 | 3.7 nM | –
COc1ccc2c(=O)n(-c3ccc(S(N)(=O)=O)cc3)c(S)nc2c1 | – | > 10000 nM
NS(=O)(=O)c1ccc(-n2c(S)nc3c(Br)cccc3c2=O)cc1 | 4.7 nM | –
NS(=O)(=O)c1ccc(-n2c(S)nc3ccc(Cl)cc3c2=O)cc1 | 34.9 nM | –
Cc1cc(C)c2nc(S)n(-c3ccc(S(N)(=O)=O)cc3)c(=O)c2c1 | 17.5 nM | –
COc1cccc2c(=O)n(-c3ccc(S(N)(=O)=O)cc3)c(S)nc12 | 5.1 nM | –

The next lines start with the values.

Ki (Carbonic anhydrase 9) | Ki (Carbonic anhydrase 1) | Compound
43.9 nM | – | NS(=O)(=O)c1ccc(-n2c(S)nc3c(Cl)cccc3c2=O)cc1
49.3 nM | – | COc1ccc2c(=O)n(-c3ccc(S(N)(=O)=O)cc3)c(S)nc2c1OC
16.2 nM | – | Cc1ccc2nc(S)n(-c3ccc(S(N)(=O)=O)cc3)c(=O)c2c1
14.5 nM | – | NS(=O)(=O)c1ccc(-n2c(S)nc3c(I)cccc3c2=O)cc1
157 nM | – | NS(=O)(=O)c1ccc(-n2c(S)nc3cc(Cl)ccc3c2=O)cc1
35.6 nM | – | Cc1cccc2c(=O)n(-c3ccc(S(N)(=O)=O)cc3)c(S)nc12
275 nM | – | NS(=O)(=O)c1ccc(-n2c(S)nc3ccc(Br)cc3c2=O)cc1
163 nM | – | NS(=O)(=O)c1ccc(-n2c(S)nc3cc(Br)ccc3c2=O)cc1
45.4 nM | – | NS(=O)(=O)c1ccc(-n2c(S)nc3c(F)cccc3c2=O)cc1

— ChEMBL document CHEMBL3763024, “Development of 3-(4-aminosulphonyl)-phenyl-2-mercapto-3H-quinazolin-4-ones as inhibitors of carbonic anhydrase isoforms involved in tumorigenesis and glaucoma” (Bioorg Med Chem, 2016)
